Columns and labels:
[1] = Stability test of the crystals under accelerated and long-term storage conditions; assay type: physicochemical; conditions: 6 months after the start of the test, crystals obtained in Example 1
Description: The crystals of the compound 1 obtained in Example 1 were subjected to a stability test under accelerated conditions (40° C./75% RH) and long-term storage conditions (25° C./60% RH).

[2] = accelerated conditions (40° C./75% RH)
[3] = long-term storage conditions (25° C./60% RH)

change in the appearance of the crystals [1, 2]: No change in the appearance | formation of decomposition products [1, 2]: no decomposition products were formed | change in the appearance of the crystals [1, 3]: No change in the appearance | formation of decomposition products [1, 3]: no decomposition products were formed | melting point: 46 to 47 °C
SMILES: O=[N+]([O-])CCCc1ccc(Sc2cccc(OCc3ccccc3)c2)cc1Cl [compound 1, 4-(3-benzyloxyphenylthio)-2-chloro-1-(3-nitropropyl)benzene]

— patent US9315453B2, “4-(3-benzyloxyphenylthio)-2-chloro-1-(3-nitropropyl)benzene crystal” (KYORIN PHARMACEUTICAL CO., LTD., priority 2012, dated 2016)
